Test results from the CheMixHub viscosity set.
“And” between values parts separate entries of the source, which are not always exact repeats. Equal entries are not always repeated. ± gives the uncertainty stated by the source.

OCC1CCCCC1
Conditions	viscosity [mPa·s]
293.15 K, 100 kPa	37.75 ± 0.59

CC(=O)OC(C)C(C)C (configuration not stated)
101.33 kPa
Conditions	viscosity [mPa·s]
298.15 K	0.795 ± 0.021
303.15 K	0.74 ± 0.019
308.15 K	0.69 ± 0.018

CC[n+]1ccn(C)c1.O=C([O-])C(F)(F)F
101 kPa
Conditions	viscosity [mPa·s]
293.15 K	39.5 ± 0.9
298.15 K	32.9 ± 0.7
303.15 K	27.5 ± 0.6
313.15 K	19.9 ± 0.5

COCCOC
Conditions	viscosity
298 K, 101.3 kPa	0.432 ± 0.004 mPa·s
298.15 K, 101 kPa	0.45 ± 0.048 mPa·s
298.15 K, 101.33 kPa	0.4236 ± 0.025 mPa·s
301.15 K, 100 kPa	0.6 ± 0.1 mPa·s and 0.7 ± 0.1 mPa·s
308.15 K, 101 kPa	0.445 ± 0.048 mPa·s and 0.3812 ± 0.0042 mPa·s
308.15 K, 101.33 kPa	0.3847 ± 0.023 mPa·s
313.15 K, 101 kPa	0.3628 ± 0.004 mPa·s
318.15 K, 101 kPa	0.3444 ± 0.0039 mPa·s
318.15 K, 101.33 kPa	0.3496 ± 0.021 mPa·s
323.15 K, 101 kPa	0.3284 ± 0.0037 mPa·s

CCCCOCC(C)O (configuration not stated)
101.33 kPa
Conditions	viscosity [mPa·s]
298.15 K	2.855 ± 0.042
308.15 K	2.142 ± 0.032
318.15 K	1.655 ± 0.025

C1CCCCC1
Conditions	viscosity
293.15 K, 101 kPa	0.972 ± 0.019 mPa·s
293.15 K, 101.3 kPa	0.986 ± 0.007 mPa·s
298 K, 101 kPa	0.99 ± 0.02 mPa·s
298 K, 101.3 kPa	0.883 ± 0.009 mPa·s
298.15 K, 100 kPa	0.8956 ± 0.11 mPa·s and 0.8961 ± 0.01 mPa·s
298.15 K, 101.3 kPa	0.905 ± 0.007 mPa·s and 0.8862 ± 0.024 mPa·s
303 K, 101.33 kPa	0.8141 ± 0.019 mPa·s
303.15 K, 100 kPa	0.82 ± 0.07 mPa·s
303.15 K, 101.32 kPa	0.826 ± 0.004 mPa·s
303.75 K, 101.33 kPa	0.8403 ± 0.01 mPa·s
307.35 K, 101.33 kPa	0.76 ± 0.011 mPa·s
307.4 K, 101.33 kPa	0.309 ± 0.003 mPa·s
308 K, 101 kPa	0.86 ± 0.02 mPa·s
308.15 K, 100 kPa	0.7316 ± 0.088 mPa·s
308.15 K, 101.3 kPa	0.7483 ± 0.021 mPa·s and 0.7592 ± 0.013 mPa·s
312.75 K, 101.33 kPa	0.7277 ± 0.0086 mPa·s
313 K, 101.33 kPa	0.7045 ± 0.017 mPa·s
313.15 K, 100 kPa	0.7 ± 0.06 mPa·s
313.15 K, 101 kPa	0.687 ± 0.014 mPa·s and 0.6934 ± 0.018 mPa·s
313.15 K, 101.3 kPa	0.7003 ± 0.0064 mPa·s and 0.6886 ± 0.019 mPa·s
313.15 K, 101.33 kPa	0.682 ± 0.018 mPa·s and 0.6995 ± 0.0069 mPa·s
318 K, 101.3 kPa	0.6338 ± 0.024 mPa·s and 0.6445 ± 0.024 mPa·s
318 K, 101.33 kPa	0.6338 ± 0.039 mPa·s
318.15 K, 101 kPa	0.649 ± 0.007 mPa·s and 0.648 ± 0.014 mPa·s and 0.655 ± 0.007 mPa·s
321.15 K, 101.32 kPa	0.5964 ± 0.011 mPa·s
322.15 K, 101.32 kPa	0.5901 ± 0.011 mPa·s
323 K, 101 kPa	0.6023 ± 0.0043 mPa·s and 0.6009 ± 0.0039 mPa·s
323 K, 101.33 kPa	0.6126 ± 0.015 mPa·s
323.15 K, 100 kPa	0.6074 ± 0.0069 mPa·s and 0.6 ± 0.05 mPa·s and 0.6077 ± 0.017 mPa·s
323.15 K, 101 kPa	0.607 ± 0.012 mPa·s
323.15 K, 101.32 kPa	0.5842 ± 0.011 mPa·s

CCCCCCOC(C)=O
101.33 kPa
Conditions	viscosity [mPa·s]
293.15 K	1.078 ± 0.021
303.15 K	0.782 ± 0.018
313.15 K	0.672 ± 0.017

CCCC[N+]1(C)CCCC1.FC(F)(F)C(F)(F)[P-](F)(F)(F)(C(F)(F)C(F)(F)F)C(F)(F)C(F)(F)F
101 kPa
Conditions	viscosity [mPa·s]
298.15 K	283.4 ± 19
303.15 K	214 ± 13
308.15 K	166.2 ± 9.3
313.15 K	122.1 ± 6.1
318.15 K	100.3 ± 4.6
323.15 K	80.1 ± 3.5

COC(C)=O
Conditions	viscosity
293.15 K, 101 kPa	0.411 ± 0.011 mPa·s
303.15 K, 101.3 kPa	0.3448 ± 0.0047 mPa·s and 0.3442 ± 0.0032 mPa·s and 0.3448 ± 0.0027 mPa·s
313.15 K, 101 kPa	0.321 ± 0.007 mPa·s and 0.3524 ± 0.0059 mPa·s and 0.331 ± 0.02 mPa·s
313.15 K, 101.33 kPa	0.331 ± 0.005 mPa·s
318.15 K, 101 kPa	0.299 ± 0.006 mPa·s and 0.313 ± 0.0085 mPa·s

CCC(C)=O
Conditions	viscosity
293.15 K, 100 kPa	0.4 ± 0.04 mPa·s and 0.4152 ± 0.0064 mPa·s
298 K, 101.3 kPa	0.475 ± 0.095 mPa·s
298 K, 101.33 kPa	0.3774 ± 0.0053 mPa·s
298.15 K, 100 kPa	0.3992 ± 0.0062 mPa·s
298.15 K, 101.3 kPa	0.407 ± 0.011 mPa·s
298.15 K, 101.33 kPa	0.384 ± 0.0043 mPa·s and 0.46 ± 0.005 mPa·s and 0.39 ± 0.0027 mPa·s
299.15 K, 101.3 kPa	0.401 ± 0.011 mPa·s
303.15 K, 101.3 kPa	0.364 ± 0.003 mPa·s
303.15 K, 101.33 kPa	0.366 ± 0.01 mPa·s
307.35 K, 101.33 kPa	0.35 ± 0.008 mPa·s
308.15 K, 100 kPa	0.344 ± 0.014 mPa·s and 0.3666 ± 0.0059 mPa·s
308.15 K, 101.33 kPa	0.342 ± 0.003 mPa·s and 0.422 ± 0.004 mPa·s
313.15 K, 101.3 kPa	0.356 ± 0.0076 mPa·s
318 K, 101.3 kPa	0.3429 ± 0.015 mPa·s
318 K, 101.33 kPa	0.3417 ± 0.039 mPa·s
318.15 K, 101 kPa	0.3194 ± 0.0052 mPa·s and 0.3213 ± 0.0087 mPa·s and 0.322 ± 0.009 mPa·s
318.15 K, 101.3 kPa	0.343 ± 0.009 mPa·s
318.15 K, 101.33 kPa	0.311 ± 0.003 mPa·s and 0.397 ± 0.004 mPa·s
323.15 K, 100 kPa	0.31 ± 0.03 mPa·s and 0.304 ± 0.004 mPa·s
323.15 K, 101.3 kPa	0.3327 ± 0.0071 mPa·s

CCOC(=O)C(C)Br (configuration not stated)
Conditions	viscosity [mPa·s]
303.15 K, 101 kPa	1.493 ± 0.0094

OCCCOCCCO
101 kPa
Conditions	viscosity [mPa·s]
293.15 K	115 ± 2
298.15 K	78.2 ± 0.7
303.15 K	51.1 ± 0.3
308.15 K	37.2 ± 0.3
313.15 K	27.4 ± 0.2
318.15 K	20.8 ± 0.1

CN(C)N
Conditions	viscosity [mPa·s]
293.15 K, 101.3 kPa	0.55 ± 0.02

OCCNCCO
viscosity
Conditions	293.15 K	298.15 K	303.15 K	308.15 K	313.15 K	318.15 K	323.15 K
101 kPa	841.5 ± 57 mPa·s and 742 ± 44 mPa·s	–	365.7 ± 23 mPa·s and 379.3 ± 14 mPa·s	263.1 ± 8.5 mPa·s	179.8 ± 10 mPa·s and 186.4 ± 5 mPa·s	134.5 ± 2.9 mPa·s	89.7 ± 5 mPa·s and 111 ± 3.1 mPa·s and 98.85 ± 1.9 mPa·s
101.33 kPa	–	566.3 ± 46 mPa·s	–	–	–	–	–

C[N+](C)(CCCS(=O)(=O)O)C1CCCCC1.Cc1ccc(S(=O)(=O)[O-])cc1
101 kPa
Conditions	viscosity [mPa·s]
303.15 K	113700
308.15 K	56930
313.15 K	32650
318.15 K	17830
323.15 K	10190

c1ccc2ncccc2c1
Conditions	viscosity
293.15 K, 101 kPa	3.64 ± 0.04 mPa·s
293.25 K, 101 kPa	3.635 ± 0.037 mPa·s
298 K, 101.3 kPa	3.475 ± 0.028 mPa·s
298.15 K, 101.33 kPa	3.36 ± 0.04 mPa·s
303 K, 101.3 kPa	3.092 ± 0.026 mPa·s
303.05 K, 101 kPa	2.943 ± 0.029 mPa·s
303.15 K, 101 kPa	2.94 ± 0.03 mPa·s and 3.1 ± 0.08 mPa·s
303.15 K, 101.33 kPa	3.01 ± 0.04 mPa·s
308 K, 101.3 kPa	2.777 ± 0.023 mPa·s
308.15 K, 101.33 kPa	2.68 ± 0.03 mPa·s
313 K, 101.3 kPa	2.489 ± 0.021 mPa·s
313.15 K, 101 kPa	2.385 ± 0.023 mPa·s and 2.384 ± 0.023 mPa·s
313.15 K, 101.33 kPa	2.43 ± 0.03 mPa·s
318 K, 101.3 kPa	2.243 ± 0.02 mPa·s and 2.242 ± 0.02 mPa·s
318.15 K, 101.33 kPa	2.21 ± 0.03 mPa·s
323.15 K, 101.33 kPa	2.03 ± 0.03 mPa·s
